Source: patent US20240417405A1, “Substituted Spiro Derivatives” (Janssen Pharmaceutica NV, priority 2021, published 2024)

Legend:
[1] = target: T1, menin/MLL (terbium chelate-labeled menin, FITC-MBM1 peptide) (Homo sapiens, UniProt O00255, T541A); assay: Menin/MLL homogenous time-resolved fluorescence (HTRF) assay; format: binding; conditions: 30 min incubation
T1 construct: Menin (a.a 1-610-6xhis tag)
T1 sequence (O00255 with tags, fused parts or gaps T541A): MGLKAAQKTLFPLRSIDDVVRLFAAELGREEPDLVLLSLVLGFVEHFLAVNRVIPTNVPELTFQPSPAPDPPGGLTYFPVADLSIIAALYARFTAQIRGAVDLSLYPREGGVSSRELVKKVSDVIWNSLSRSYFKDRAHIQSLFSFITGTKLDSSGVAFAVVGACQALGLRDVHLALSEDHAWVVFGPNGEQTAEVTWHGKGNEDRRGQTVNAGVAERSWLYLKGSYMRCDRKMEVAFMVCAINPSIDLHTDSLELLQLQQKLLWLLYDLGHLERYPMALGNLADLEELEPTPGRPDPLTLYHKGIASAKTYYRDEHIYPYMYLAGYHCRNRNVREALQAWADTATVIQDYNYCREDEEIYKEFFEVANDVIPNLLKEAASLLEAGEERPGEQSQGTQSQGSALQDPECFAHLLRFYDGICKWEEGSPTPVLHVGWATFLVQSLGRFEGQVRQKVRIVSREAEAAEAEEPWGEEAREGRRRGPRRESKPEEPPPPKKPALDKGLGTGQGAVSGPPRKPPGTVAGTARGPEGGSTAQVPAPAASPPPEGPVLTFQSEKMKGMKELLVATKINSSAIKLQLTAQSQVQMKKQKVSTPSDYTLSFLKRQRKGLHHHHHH
In short: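 Read-out: TR-FRET ratio (FITC 520 nm / terbium 490 nm, ex. 337 nm) after 15 min with 75 nM FITC-MBM1 peptide. Test compound first sat 30 min with 200 pM Tb-menin 1-610-His, 0.5% DMSO, pH 7.5 Tris buffer. IC50 by Hill fit; values under 0.1 nM reported as 0.1 nM.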

[2] = system: KO-52 cells; assay: Proliferation assay, spheroid-like growth, KO-52 (MLL wildtype control cell line); format: cell-based, human; conditions: Homo sapiens, 192 h, KO-52 control cells, 8 days, confluence as measure of spheroid size; read-out: spheroid assay_OneTime KO-52 IC50
In short: (§1)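 MOLM14 (MLL-AF9) or KO-52 (MLL wildtype) cells were grown in ultra-low attachment round-bottom wells with compound (0.3% DMSO) for 8 days at 37 °C. Spheroid confluence was imaged live on day 8, normalized to DMSO and a high-dose reference/staurosporin control, and absolute IC50 fitted with variable slope.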

[3] = system: MOLM14 cells; assay: Proliferation assay, spheroid-like growth, MOLM14 (MLL-AF9 rearranged); format: cell-based, human; conditions: Homo sapiens, MOLM-14, 192 h, 8 days, confluence as measure of spheroid size, read-out: spheroid assay_OneTime MOLM14 IC50
In short: as §1

| SMILES | IC50 [1] | IC50 [2] | IC50 [3] |
| --- | --- | --- | --- |
| CC(=O)N[C@H]1C[C@@H](C(C(C)C)N2CC3(CCN(c4ncnnc4Oc4ccc(F)cc4-c4cnncc4C4CC4)C3)C2)C1 (stereo partly drawn) [Compound 187] | 0.8 nM | > 15000 nM | 65 nM |
| CC(C)[C@H]([C@H]1C[C@@H](N2CC[C@H](F)C2)C1)N1CC2(CCN(c3ncnnc3Oc3ccc(F)cc3-c3cncnc3C3CC3)C2)C1 (single isomer, unassigned) [Compound 238] | 0.1 nM | 7170 nM | 2 nM |
| CC(C)[C@H]([C@H]1C[C@@H](N(C)C)C1)N1CC2(CCN(c3ncnnc3Oc3ccc(F)cc3-c3ncccc3C3CC3)C2)C1 (single isomer, unassigned) [Compound 147] | 0.1 nM | 390 nM | 4 nM |
| CC(C)C([C@H]1C[C@@H](Nc2cncnc2)C1)N1CC2(CCN(c3ncnnc3Oc3ccc(F)cc3-c3cncnc3C3CC3)C2)C1 (stereo partly drawn) [Compound 193] | 0.2 nM | > 15000 nM | 50 nM |
| CC(C)[C@@H]([C@H]1C[C@@H](N(C)C)C1)N1CC2(CCN(c3ncnnc3Oc3ccc(F)cc3-c3nnccc3C3CC3)C2)C1 (single isomer, unassigned) [Compound 261a] | 0.16 nM | > 15000 nM | 19 nM |
| CC(C)[C@H](C1CCN(CC2COC2)CC1)N1CC2(CCN(c3ncnnc3Oc3ccc(F)cc3-c3cnc(C#N)nc3C3CC3)C2)C1 (single isomer, unassigned) [Compound 333] | 0.1 nM | 820 nM | 38 nM |
| CC(C)[C@@H]([C@H]1C[C@@H](N2C[C@H]3C[C@@H]2CO3)C1)N1CC2(CCN(c3ncnnc3Oc3ccc(F)cc3-c3cccnc3C3CC3)C2)C1 (single isomer, unassigned) [Compound 290] | 0.1 nM | 1080 nM | 5 nM |
| CC(C)C([C@H]1C[C@@H](N2CCC3(COC3)C2)C1)N1CC2(CCN(c3ncnnc3Oc3ccc(F)cc3-c3cncnc3C3CC3)C2)C1 (stereo partly drawn) [Compound 326] | 0.2 nM | 9180 nM | 32 nM |
| CC(C)[C@H]([C@H]1C[C@H](N2C[C@H]3COC[C@H]3C2)C1)N1CC2(CCN(c3ncnnc3Oc3ccc(F)cc3-c3ncccc3C3CC3)C2)C1 (single isomer, unassigned) [Compound 150] | 0.1 nM | 3140 nM | 120 nM |
| CC(=O)N1CC2CN([C@H]3C[C@@H]([C@@H](C(C)C)N4CC5(CCN(c6ncnnc6Oc6ccc(F)cc6-c6cncnc6C6CC6)C5)C4)C3)CC2C1 (single isomer, unassigned) [Compound 64] | 0.1 nM | > 15000 nM | 2 nM |
| CC(C)[C@H]([C@H]1C[C@@H](N2CCC3(C2)CS(=O)(=O)C3)C1)N1CC2(CCN(c3ncnnc3Oc3ccc(F)cc3-c3cncnc3C3CC3)C2)C1 (single isomer, unassigned) [Compound 205] | 0.1 nM | 8470 nM | 39 nM |
| CC(C)[C@@H]([C@H]1C[C@@H](N2CCC(S(C)(=O)=O)CC2)C1)N1CC2(CCN(c3ncnnc3Oc3ccc(F)cc3-c3cccnc3C3CC3)C2)C1 (single isomer, unassigned) [Compound 23] | 0.3 nM | 1060 nM | 9 nM |
| CC(C)[C@H](C1CCN(C[C@H]2C[C@@H](O)C2)CC1)N1CC2(CCN(c3ncnnc3Oc3ccc(F)cc3-c3cncnc3C3CC3)C2)C1 (single isomer, unassigned) [Compound 357] | 0.1 nM | 9790 nM | 45 nM |
| CC(C)C([C@H]1C[C@@H](N2CC3(COC3)C2)C1)N1CC2(CCN(c3ncnnc3Oc3ccc(F)cc3-c3cncnc3C3CC3)C2)C1 (single isomer, unassigned) [Compound 20] | 0.1 nM | 4300 nM | 5 nM |
| CC(C)[C@@H]([C@H]1C[C@@H](N2C[C@H]3COC[C@H]3C2)C1)N1CC2(CCN(c3ncnnc3Oc3ccc(F)cc3-c3cnc(C#N)nc3C3CC3)C2)C1 [Compound 168] | 0.6 nM | 2590 nM | 53 nM |
| CC(C)[C@@H](C1CCN(CC2COC2)CC1)N1CC2(CCN(c3ncnnc3Oc3ccc(F)cc3-c3cncnc3C3CC3)C2)C1 (single isomer, unassigned) [Compound 29] | 1.8 nM | > 15000 nM | 220 nM |
| CC(=O)N[C@H]1C[C@@H](C(C(C)C)N2CC3(CCN(c4ncnnc4Oc4ccc(F)cc4-c4cncnc4C4CC4)C3)C2)C1 (stereo partly drawn) [Compound 2] | 0.4 nM | 9040 nM | 29 nM |
| CC(C)[C@H]([C@H]1C[C@@H](N2C[C@H](O)C3(CC3)C2)C1)N1CC2(CCN(c3ncnnc3Oc3ccc(F)cc3-c3cncnc3C3CC3)C2)C1 (single isomer, unassigned) [Compound 45] | 0.2 nM | 6330 nM | < 2 nM |
| CC(C)[C@H]([C@H]1C[C@@H](NC2CCOCC2)C1)N1CC2(CCN(c3ncnnc3Oc3ccc(F)cc3-c3cncnc3C3CC3)C2)C1 (single isomer, unassigned) [Compound 163] | 0.1 nM | 4370 nM | 11 nM |
| CC(C)[C@H](C1CCN(CC2COC2)CC1)N1CC2(CCN(c3ncnnc3Oc3ccc(F)cc3-c3cncnc3C3CC3)C2)C1 (single isomer, unassigned) [Compound 5] | 0.2 nM | 9310 nM | 120 nM |
| CC(C)[C@H]([C@H]1C[C@@H](NC2CC2)C1)N1CC2(CCN(c3ncnnc3Oc3ccc(F)cc3-c3cncnc3C3CC3)C2)C1 (single isomer, unassigned) [Compound 39] | 0.1 nM | 1480 nM | 7 nM |
| CC(C)[C@H]([C@H]1C[C@@H](NC(=O)C2(F)CC2)C1)N1CC2(CCN(c3ncnnc3Oc3ccc(F)cc3-c3n[nH]c(=O)cc3C3CC3)C2)C1 (single isomer, unassigned) [Compound 311] | 0.3 nM | 9990 nM | 52 nM |
| CC(C)[C@H]([C@H]1C[C@H](N2CC3(COC3)C2)C1)N1CC2(CCN(c3ncnnc3Oc3ccc(F)cc3-c3ncccc3C3CC3)C2)C1 (single isomer, unassigned) [Compound 152] | 0.2 nM | 3960 nM | 49 nM |
| CC(C)[C@H]([C@H]1C[C@@H](N2CC[C@@H](O)C23CC3)C1)N1CC2(CCN(c3ncnnc3Oc3ccc(F)cc3-c3cncnc3C3CC3)C2)C1 (single isomer, unassigned) [Compound 40] | 0.2 nM | 500 nM | 10 nM |
| CC(C)[C@H]([C@H]1C[C@@H](N(C)CCC(=O)N(C)C)C1)N1CC2(CCN(c3ncnnc3Oc3ccc(F)cc3-c3cncnc3C3CC3)C2)C1 (single isomer, unassigned) [Compound 348] | 0.2 nM | 10200 nM | 4 nM |
| CC(C)[C@@H]([C@H]1C[C@]2(COC(=O)N2)C1)N1CC2(CCN(c3ncnnc3Oc3ccc(F)cc3-c3ncccc3C3CC3)C2)C1 (single isomer, unassigned) [Compound 322] | 0.3 nM | > 15000 nM | 30 nM |
| CC(=O)N[C@H]1C[C@@H]([C@@H](C(C)C)N2CC3(CCN(c4ncnnc4Oc4ccc(F)cc4-c4cncnc4C4CC4)C3)C2)C1 (single isomer, unassigned) [Compound 2a] | 0.2 nM | 7000 nM | 22 nM |
| CC(=O)N1CCN([C@H]2C[C@@H]([C@@H](C(C)C)N3CC4(CCN(c5ncnnc5Oc5ccc(F)cc5-c5cncnc5C5CC5)C4)C3)C2)CC1 (single isomer, unassigned) [Compound 34] | 0.5 nM | 5140 nM | 36 nM |
| CC1CN([C@H]2C[C@@H]([C@@H](C(C)C)N3CC4(CCN(c5ncnnc5Oc5ccc(F)cc5-c5cncnc5C5CC5)C4)C3)C2)CCC1O (single isomer, unassigned) [Compound 201] | 0.2 nM | 4240 nM | 6 nM |
| CC(C)[C@@H]([C@H]1C[C@H](N2CC[C@@](C)(O)C2)C1)N1CC2(CCN(c3ncnnc3Oc3ccc(F)cc3-c3cnncc3C3CC3)C2)C1 (single isomer, unassigned) [Compound 115] | 0.2 nM | > 15000 nM | 430 nM |
